We go through nine compounds from patent US8609674B2, “Potassium channel modulators” (AbbVie Inc., priority 2010, dated 2013).

Experiment [1] has as its target T1, human KCNQ2 and KCNQ3 subunits (KCNQ2/3 channels) (Homo sapiens, UniProt O43525+O43526).
T1 construct: expressed in transfected cells; host or cells: HEK293
In words: KCNQ2/3 thallium influx FLIPR assay (BTC-AM dye). It counts as cell-based. Conditions: for EC50: HEK293 cells stably expressing human KCNQ2 and KCNQ3, Tl+ influx; for Emax: maximum response relative to 10 μM retigabine (=100%), read-out: KCNQ2/3 Max. %. The protocol:
The following example describes the assay that may be used to identify compounds that activate KCNQ2/3 channels.
HEK293 cells stably expressing human KCNQ2 and KCNQ3 subunits were seeded in 96-well, black-walled, clear-bottomed, poly-D-lysine coated plates (BD Biosciences, Bedford, Mass.) at a density of 1×10^5 cells per well 24 hours before the assay. On the assay day, BTC-AM dye (Invitrogen, Carlsbad, Calif.) was loaded into the cells by replacing the cell culture medium with 55 μL/well of 3 μg/ml dye in Dulbecco's Phosphate Buffered Saline (DPBS) (Invitrogen). Dye loading was allowed to proceed for 2 hours at room temperature and then cells were washed twice with 50 μL/well of assay buffer (in mM: 10 HEPES pH 7.3, 5 glucose, 140 Na-gluconate, 2.5 K-gluconate, 3.6 Ca-gluconate, 2 MgSO4, 0.1 Ouabain) to remove unloaded dye. Cells were incubated in 50 μL of assay buffer before loading onto a FLIPR system (Molecular Devices, Sunnyvale, Calif.). Various concentrations of compounds to be assayed were added to the cells in 50 μL of assay buffer and incubated for 4 minutes. The fluorescence signal was initiated by adding 100 μL of assay buffer containing 6 mM TlNO3 and 10 mM K2SO4. Fluors were excited using the 488-nm line of an argon laser and emission was filtered using a 540±30 nm bandpass filter. Fluorescent signals were recorded for 3 minutes. Sums of the responses over basal responses were plotted versus concentrations of test compounds to obtain an EC50 value and the points fit with a nonlinear regression curve using GraphPad Prism software (GraphPad Software Inc., San Diego, Calif.). EC50 values were calculated from the resulting sigmoidal dose-response curves. The maximum response for each test compound was determined relative to the response produced by 10 μM retigabine. The maximum response of retigabine at 10 μM was set at 100%.

In a further experiment the target is T2, human KCNQ5 (Homo sapiens, UniProt Q9NR82).
T2 construct: expressed in transfected cells; host or cells: HEK293
Description: KCNQ5 thallium influx FLIPR TETRA assay. It counts as cell-based. The note with it: for EC50: HEK293 cells stably expressing human KCNQ5, Tl+ influx; for Emax: maximum response relative to 10 μM retigabine (=100%), read-out: KCNQ5 Max. %. The protocol:
(§1) The following example describes the assay that may be used to identify compounds that activate KCNQ4 or KCNQ5 channels.
(§2) The assays were performed using a FLIPR^TETRA (Molecular Devices, Sunnyvale, Calif.) in 384-well format. HEK293 cells stably expressing human KCNQ4 or KCNQ5 were seeded in 384-well, black-walled, clear-bottomed, poly-D-lysine coated plates (Greiner Bio-One, Germany) at a density of 1.5×10^4 cells per well, 24 hours before the assay. On the assay day, BTC-AM dye was loaded into the cells by replacing the cell culture medium with 30 μL/well of 2.8 μM dye in DPBS. Dye loading was allowed to proceed for 2 hours at room temperature and then cells were washed once in 30 μL/well of assay buffer (in mM: 10 HEPES pH 7.3, 5 glucose, 140 Na-gluconate, 2.5 K-gluconate, 3.6 Ca-gluconate, 2 MgSO4, 0.1 Ouabain) to remove unloaded dye. Cells were incubated in 30 μL of assay buffer before loading onto a FLIPR^TETRA system. Compounds to be assayed were added to the cells as 4× of final concentration in 15 μL of assay buffer and incubated for 4 minutes at room temperature. The influx signal was initiated by adding 15 μL of assay buffer containing 4.2 mM TlNO3 and 7 mM K2SO4. Tl^+ influx signals were recorded for 3 minutes. Tl^+ influx signal was quantified as light unit changes after Tl^+ addition using the “SUM” statistic from the FLIPR^TETRA software. Sums of the responses over basal responses were plotted versus concentrations of test compounds to obtain an EC50 value and the points fit with a nonlinear regression curve using GraphPad Prism software (GraphPad Software Inc., San Diego, Calif.). EC50 values were calculated from the resulting sigmoidal dose-response curves. The maximum response for each test compound was determined relative to the response produced by 10 μM retigabine. The maximum response of retigabine at 10 μM was set at 100%.

Experiment [2] deals with capsaicin-induced secondary mechanical hyperalgesia. Description: Capsaicin-induced secondary mechanical hypersensitivity. Type of experiment: in vivo, Sprague-Dawley rats. Conditions: rat, about 30 mg/kg i.p., 30 min before testing, 180 min after capsaicin. The text has this: Adult male Sprague-Dawley rats (250-300 g body weight, Charles River Laboratories, Portage, Mich.) were used. Animal handling and experimental protocols were approved by the Institutional Animal Care and Use Committee (IACUC) at Abbott Laboratories. For all surgical procedures, animals were maintained under isoflurane anesthesia (4-5% to induce, 1-3% to maintain), and the incision sites were sterilized using a 10% povidone-iodine solution prior to and after surgeries.
Rats were allowed to acclimate to the study room for 1 hour. They were then briefly restrained, and capsaicin was administered at 10 μg in 10 μl of vehicle (10% ethanol and 2-hydroxypropyl cyclodextrin) by intraplantar injection into the center of the right hind paw. Secondary mechanical hyperalgesia was measured at the heel away from the site of injection at 180 min following capsaicin (Joshi et al 2006, Neuroscience 143, 587-596). Compounds were injected (i.p.) 30 min before testing (150 min post-capsaicin).
Tactile (mechanical) allodynia was measured using calibrated von Frey filaments (Stoelting, Wood Dale, Ill.) as described in Chaplan, S. R., F. W. Bach, J. M. Pogrel, J. M. Chung and T. L. Yaksh, 1994, Quantitative assessment of tactile allodynia in the rat paw, J. Neurosci. Methods, 53, 55. Rats were placed into inverted individual plastic containers (20×12.5×20 cm) on top of a suspended wire mesh grid, and acclimated to the test chambers for 20 minutes. […] A 50% withdrawal threshold was determined using an up-down procedure (Dixon, W. J., 1980, Efficient analysis of experimental observations, Ann. Rev. Pharmacol. Toxicol., 20, 441). […] Tactile allodynia thresholds were also assessed in several control groups, including naive, sham-operated, and saline infused animals as well as in the contralateral paws of nerve-injured rats. To evaluate the anti-nociceptive effects, animals were administered vehicle or test compound and tactile allodynia was assessed 30 minutes after i.p. administration.
Tactile allodynia was measured as described above.

The target of a further experiment is T3, human KCNQ4 (Homo sapiens, UniProt P56696).
T3 construct: expressed in transfected cells; host or cells: HEK293
In words: KCNQ4 thallium influx FLIPR TETRA assay. It counts as cell-based. The note with it: for EC50: HEK293 cells stably expressing human KCNQ4, Tl+ influx; for Emax: maximum response relative to 10 μM retigabine (=100%), read-out: KCNQ4 Max. %. The method, then: as §1, §2

Structures are written as SMILES.

Usually EC50 stands for the concentration giving half of the maximal effect. Read a low EC50 as a more potent agent.

Regarding `CCc1nc2ccccc2c(=O)n1NC(=O)C[C@@H]1CC[C@H]2C[C@@H]1C2(C)C` [Example 2, 2-[(1S,2S,5S)-6,6-dimethylbicyclo[3.1.1]hept-2-yl]-N-(2-ethyl-4-oxoquinazolin-3(4H)-yl)acetamide], the EC50 is 0.1 to 0.5 µM in experiment [1], more than 30 µM on human KCNQ5 and more than 30 µM at human KCNQ4. The Emax in experiment [1] stood at 109%; at human KCNQ5 it was 294%; at human KCNQ4, 22%. Also, the “change in paw withdrawal latency versus vehicle (tactile allodynia)” value in experiment [2] is recorded as “statistically significant change in paw withdrawal latency versus vehicle”.

`CC1(C)[C@H]2CC[C@@H](CC(=O)Nn3c(C4CC4)nc4ccccc4c3=O)[C@@H]1C2` [Example 5, N-(2-cyclopropyl-4-oxoquinazolin-3(4H)-yl)-2-[(1S,2S,5S)-6,6-dimethylbicyclo[3.1.1]hept-2-yl]acetamide]: the EC50 was less than 0.1 µM in experiment [1], more than 30 µM at human KCNQ5 and more than 30 µM at human KCNQ4. The Emax turned out to be 93% in experiment [1], 50% at human KCNQ5 and 6% on human KCNQ4. Further, the “change in paw withdrawal latency versus vehicle (tactile allodynia)” value in experiment [2] was “statistically significant change in paw withdrawal latency versus vehicle”.

With `CC1(C)[C@H]2CC[C@@H](CC(=O)Nn3cnc4ccccc4c3=O)[C@@H]1C2` [Example 16, 2-[(1S,2S,5S)-6,6-dimethylbicyclo[3.1.1]hept-2-yl]-N-(4-oxoquinazolin-3(4H)-yl)acetamide], the concentration for a half-maximal effect (EC50) is 1 to 10 µM in experiment [1], more than 30 µM on human KCNQ5 and more than 30 µM at human KCNQ4. The Emax in experiment [1] worked out at 144%; on human KCNQ5, 13%; at human KCNQ4 it was 6%.

Consider `CC1(C)[C@H]2CC[C@@H](CC(=O)Nn3c(C4CC4)nc4cc(F)ccc4c3=O)[C@@H]1C2` [Example 3, N-(2-cyclopropyl-7-fluoro-4-oxoquinazolin-3(4H)-yl)-2-[(1S,2S,5S)-6,6-dimethylbicyclo[3.1.1]hept-2-yl]acetamide], for which the 50% effective concentration (EC50) in experiment [1] is less than 0.1 µM; at human KCNQ5, more than 30 µM; on human KCNQ4, more than 30 µM. For the same compound, the Emax in experiment [1] was 99%; at human KCNQ5, 36%; at human KCNQ4 it was -2%.

`CC(C)c1nc2ccc(Cl)cc2c(=O)n1NC(=O)C[C@@H]1CC[C@H]2C[C@@H]1C2(C)C` [Example 18, N-[6-chloro-4-oxo-2-(propan-2-yl)quinazolin-3(4H)-yl]-2-[(1S,2S,5S)-6,6-dimethylbicyclo[3.1.1]hept-2-yl]acetamide]: the EC50 (in experiment [1]; on human KCNQ5; on human KCNQ4) was more than 30 µM in each case. The Emax in experiment [1] is 8%; on human KCNQ5 it was 19%; at human KCNQ4, 4%.

As for `CC(C)c1nc2ccccc2c(=O)n1NC(=O)COC[C@@H]1CC[C@H]2C[C@@H]1C2(C)C` [Example 8, 2-[(1S,2R,5S)-(6,6-dimethylbicyclo[3.1.1]hept-2-yl)methoxy]-N-[4-oxo-2-(propan-2-yl)quinazolin-3(4H)-yl]acetamide], the EC50 was 0.5 to 1 µM in experiment [1], more than 30 µM at human KCNQ5 and more than 30 µM at human KCNQ4. For the same compound, the Emax was found to be 132% in experiment [1], 52% on human KCNQ5 and 57% on human KCNQ4.

On to `CCN(CC)c1nc2ccccc2c(=O)n1NC(=O)C[C@@H]1CC[C@H]2C[C@@H]1C2(C)C` [Example 19, N-[2-(diethylamino)-4-oxoquinazolin-3(4H)-yl]-2-[(1S,2S,5S)-6,6-dimethylbicyclo[3.1.1]hept-2-yl]acetamide], for which the EC50 in experiment [1] is 0.1 to 0.5 µM; on human KCNQ5, more than 30 µM; at human KCNQ4, more than 30 µM. The Emax in experiment [1] was found to be 28%; on human KCNQ5, 5%; at human KCNQ4 it was 8%.

On to `CC(C)c1nc2ccccc2c(=O)n1NC(=O)C[C@@H]1C[C@@H]2C[C@H](C1)C2(C)C` [Example 25, 2-[(1R,3s,5S)-6,6-dimethylbicyclo[3.1.1]hept-3-yl]-N-[4-oxo-2-(propan-2-yl)quinazolin-3(4H)-yl]acetamide], for which the EC50 in experiment [1] was 0.1 to 0.5 µM; at human KCNQ5 it was more than 30 µM; at human KCNQ4, more than 30 µM. Moreover, the Emax in experiment [1] was 93%; at human KCNQ5, 15%; at human KCNQ4, -23%.

Turning to `CC(C)c1nc2ccccc2c(=O)n1NC(=O)CC1CC2CC1C2` (racemic) [Example 22, (±)-2-(bicyclo[2.1.1]hex-2-yl)-N-[4-oxo-2-(propan-2-yl)quinazolin-3(4H)-yl]acetamide], the EC50 in experiment [1] is less than 0.1 µM; at human KCNQ5, 1 to 10 µM; on human KCNQ4 it was 1 to 10 µM. Also, the Emax in experiment [1] amounted to 179%; at human KCNQ5 it was 857%; at human KCNQ4 it was 255%.
